Reference: patent US20220098154A1 (IDEAYA Biosciences, Inc., priority 2019, published 2022)

These molecules were tested against T1, Pol theta polymerase domain (residues 1819-2590) (Homo sapiens, UniProt O75417) (assay: Primer extension assay: inhibition of polymerase activity of Pol theta (molecular beacon fluorescence)). Conditions: Pol theta polymerase domain 4 nM; 15 min pre-incubation; fluorescence change over 30 min (ex 485 nm, em 535 nm); 11-point dilution series.
T1 construct: Pol theta polymerase domain (residues 1819-2590)
T1 sequence (O75417 1819-2590): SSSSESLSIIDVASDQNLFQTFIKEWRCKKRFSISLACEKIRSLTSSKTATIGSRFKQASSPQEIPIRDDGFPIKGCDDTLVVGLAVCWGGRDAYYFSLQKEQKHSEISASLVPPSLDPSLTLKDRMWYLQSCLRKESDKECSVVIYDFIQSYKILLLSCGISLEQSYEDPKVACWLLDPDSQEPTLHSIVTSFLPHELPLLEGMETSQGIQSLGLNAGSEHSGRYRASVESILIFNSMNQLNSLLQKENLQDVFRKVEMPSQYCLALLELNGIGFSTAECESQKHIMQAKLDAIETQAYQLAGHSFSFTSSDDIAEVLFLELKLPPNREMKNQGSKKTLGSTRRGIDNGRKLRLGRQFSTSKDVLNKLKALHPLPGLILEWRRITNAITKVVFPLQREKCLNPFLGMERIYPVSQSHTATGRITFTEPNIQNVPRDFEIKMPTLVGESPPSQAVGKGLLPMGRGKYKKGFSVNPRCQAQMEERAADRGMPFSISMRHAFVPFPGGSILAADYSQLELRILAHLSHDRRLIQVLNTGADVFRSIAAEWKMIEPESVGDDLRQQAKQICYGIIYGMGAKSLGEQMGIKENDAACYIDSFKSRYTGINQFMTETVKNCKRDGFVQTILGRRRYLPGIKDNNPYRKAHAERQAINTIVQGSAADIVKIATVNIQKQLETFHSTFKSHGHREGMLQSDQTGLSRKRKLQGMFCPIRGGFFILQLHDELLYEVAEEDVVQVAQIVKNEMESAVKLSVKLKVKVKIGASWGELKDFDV
Assay type: biochemical
Experimental: The ability of the compounds of Formula (I) to inhibit polymerase activity of Pol theta was determined using the assay described below.
A mixture of 20 uL of Pol theta polymerase domain (residues 1819-2590) at a final concentration of 4 nM in assay buffer (20 m M TRIS, pH 7.80, 50 mM KCl, 10 mM MgCl2, 1 mM DTT, 0.01% BSA, 0.01% Tween20) was added to test compounds (11-point dilution series of test compounds) except the low control wells without test compounds. The above enzyme and test compound inhibitor mixture was then incubated at room temperature for 15 min. An equal volume (20 μl) of dNTP substrate mixture (48 μM) and primed molecular beacon DNA (obtained by annealing template SEQ ID NO 2: (5′-CCTTCCTCCCGTGTCTTG-TACCTTCCCGTCA-GGAGGAAGG-3′) with 5′-TAMRA and 3′-BHQ and primer DNA (SEQ ID NO: 3; 5′-GACGGGAAGG-3′) in 10 mM Tris-HCl pH 8.0, 100 mM NaCl buffer) (96 nM) in assay buffer was added to all the test wells. The inhibition activity was measured by monitoring the fluorescence change over 30 min at 535 nm upon excitation at 485 nm. The high control (DMSO with enzyme) with high fluorescence intensity represents no inhibition of polymerase reaction while the low control (DMSO with buffer) with low fluorescence intensity represents full inhibition of polymerase activity. Slope of the reaction progress curves were used to calculate the rate of polymerization. The rates were used to determine the percent inhibition using a four-parameter inhibition model to generate IC50, Hill slope and max inhibition.
Molecule `Cc1cc(OCC(=O)N(C)c2ccccc2)nc(C)c1Cl` (racemic) [Example 36, 2-(5-chloro-4,6-dimethylpyridin-2-yloxy)-N-methyl-N-phenyl-acetamide] has an IC50 of 200 to 500 nM. Work on `CN(C(=O)CNc1nc(C(F)(F)F)cc(C(F)(F)F)c1C#N)c1cccc(C(N)=O)c1` [Example 1, 3-(2-(3-cyano-4,6-bis(trifluoromethyl)pyridin-2-yl-amino)-N-methylacetamido)benzamide] yielded an IC50 of 500 to 1000 nM. Molecule `CN(C(=O)CNc1nc(C(F)(F)F)cc(C(F)(F)F)n1)c1ccc(F)cc1` [Example 2, 2-(4,6-bis(trifluoromethyl)pyrimidin-2-ylamino)-N-(4-fluoro-phenyl)-N-methylacetamide] has an IC50 of under 200 nM. For `CN(C(=O)CNc1nc(C(F)(F)F)cc(C(F)(F)F)c1C#N)c1ccc(C#N)cc1` [Example 3, 2-((3-cyano-4,6-bis(trifluoromethyl)pyridin-2-yl)-amino)-N-(4-cyanophenyl)-N-methylacetamide], the IC50 was 200 to 500 nM. `N#Cc1c(C(F)(F)F)cc(C(F)(F)F)nc1NCC(=O)N(c1ccc(F)cc1)C1CC1` [Example 4, 2-((3-cyano-4,6-bis(trifluoromethyl)pyridin-2-yl)-amino)-N-cyclopropyl-N-(4-fluorophenyl)acetamide] gave an IC50 of under 200 nM. In the case of `CN(C(=O)CNc1nc(C(F)(F)F)cc(C(F)(F)F)c1C#N)c1ccc(OC2CC2)cc1` [Example 5, 2-((3-cyano-4,6-bis(trifluoromethyl)pyridin-2-yl)-amino)-N-(4-cyclopropoxyphenyl)-N-methyl-acetamide], the IC50 is reported as under 200 nM. Work on `CN(C(=O)CNc1nc(C(F)(F)F)cc(C(F)(F)F)c1C#N)c1ccc(OC(F)(F)F)cc1` [Example 6, 2-((3-cyano-4,6-bis(trifluoromethyl)pyridin-2-yl)-amino)-N-methyl-N-(4-(trifluoromethoxy)phenyl)-acetamide] yielded an IC50 of under 200 nM. `CN(C(=O)CNc1cc(C(F)(F)F)cc(C(F)(F)F)n1)c1ccc(F)cc1` [Example 7, 2-((4,6-bis(trifluoromethyl)pyridin-2-yl)amino)-N-(4-fluoro-phenyl)-N-methylacetamide] gave an IC50 of under 200 nM. Work on `N#Cc1c(C(F)(F)F)cc(C(F)(F)F)nc1NCC(=O)N(CC(F)(F)F)c1ccc(F)cc1` [Example 8, 2-(3-cyano-4,6-bis(trifluoromethyl)pyridin-2-yl-amino)-N-(4-fluorophenyl)-N-(2,2,2-trifluoroethyl)-acetamide] yielded an IC50 of under 200 nM. With `COc1ccc(N(C)C(=O)CNc2nc(C(F)(F)F)cc(C(F)(F)F)c2C#N)cc1` [Example 9, 2-[[3-cyano-4,6-bis(trifluoromethyl)pyridin-2-yl]-amino]-N-(4-methoxyphenyl)-N-methylacetamide] the IC50 was under 200 nM. `CN(C(=O)CNc1nc(C(F)(F)F)cc(C(F)(F)F)c1C#N)c1ccc(F)cc1` [Example 10, 2-(3-cyano-4,6-bis(trifluoromethyl)pyridin-2-yl-amino)-N-(4-fluorophenyl)-N-methylacetamide] showed an IC50 of under 200 nM. `CN(C(=O)CNc1cc(Cl)cc(C(F)(F)F)c1C#N)c1ccc(F)cc1` [Example 11, 2-[[5-chloro-2-cyano-3-(trifluoromethyl)phenyl]-amino]-N-(4-fluorophenyl)-N-methylacetamide] showed an IC50 of under 200 nM. `CN(C(=O)CNc1cc(C(F)(F)F)cc(C(F)(F)F)c1)c1ccc(F)cc1` [Example 12, 2-((3,5-bis(trifluoromethyl)phenyl)amino)-N-(4-fluorophenyl)-N-methylacetamide] was tested, and the IC50 was under 200 nM. `CN(C(=O)CNc1cc(Cl)cc(C(F)(F)F)c1)c1ccc(F)cc1` [Example 13, 3-[[3-chloro-5-(trifluoromethyl)phenyl]amino]-N-(4-fluoro-phenyl)-N-methylacetamide] gave an IC50 of under 200 nM. In the case of `CN(C(=O)COc1cc(Cl)cc(C(F)(F)F)c1)c1ccc(F)cc1` [Example 14, 2-[3-chloro-5-(trifluoromethyl)phenoxy]-N-(4-fluoro-phenyl)-N-methylacetamide], the IC50 is reported as 200 to 500 nM. In the case of `Cc1nc(N[C@@H](CCO)C(=O)N(C)c2ccc(F)cc2)c(C#N)c(C)c1Cl` [Example 15, (S)-2-(5-chloro-3-cyano-4,6-dimethylpyridin-2-yl-amino)-N-(4-fluorophenyl)-4-hydroxy-N-methyl-butanamide], the IC50 is reported as 200 to 500 nM. `Cc1nc(N[C@@H](CC(N)=O)C(=O)N(C)c2ccc(F)cc2)c(C#N)c(C)c1Cl` [Example 18, (S)-2-(5-chloro-3-cyano-4,6-dimethylpyridin-2-yl-amino)-N1-(4-fluorophenyl)-N1-methylsuccinamide] was tested, and the IC50 was 200 to 500 nM. With `Cc1nc(NCC(=O)N(C)c2ccc(F)cc2)c(C#N)c2ccccc12` [Example 19, 2-[(4-cyano-1-methylisoquinolin-3-yl)amino]-N-(4-fluorophenyl)-N-methylacetamide] the IC50 was under 200 nM. In the case of `CN(C(=O)CNc1cc(Cl)cc(Br)c1)c1ccc(F)cc1` [Example 20, 2-[(3-bromo-5-chlorophenyl)amino]-N-(4-fluoro-phenyl)-N-methylacetamide], the IC50 is reported as 200 to 500 nM. With `Cc1nc(NCC(=O)N(C)c2cccc(C#N)c2)c(C#N)c(C)c1Cl` [Example 21, 2-((5-chloro-3-cyano-4,6-dimethylpyridin-2-yl)-amino)-N-(3-cyanophenyl)-N-methylacetamide] the IC50 was 200 to 500 nM. `COc1ccc(N(C)C(=O)CNc2nc(C)c(Cl)c(C)c2C#N)cc1` [Example 22, 2-(5-chloro-3-cyano-4,6-dimethylpyridin-2-ylamino)-N-(4-methoxyphenyl)-N-methylacetamide] was tested, and the IC50 was under 200 nM. `Cc1nc(NCC(=O)N(C)c2ccc(F)cc2)c(Cl)c(C)c1Cl` [Example 23, 2-(3,5-dichloro-4,6-dimethylpyridin-2-ylamino)-N-(4-fluoro-phenyl)-N-methylacetamide] showed an IC50 of under 200 nM. `CN(C(=O)CNc1ncc2c(c1C#N)CCC2)c1ccc(F)cc1` [Example 24, 2-(4-cyano-6,7-dihydro-5H-cyclopenta[c]pyridin-3-ylamino)-N-(4-fluorophenyl)-N-methylacetamide] gave an IC50 of 500 to 1000 nM. Molecule `Cc1nc(N[C@@H](C)C(=O)N(C)c2ccc(F)cc2)c(C#N)c(C)c1Cl` [Example 25, (S)-2-((5-chloro-3-cyano-4,6-dimethylpyridin-2-yl)-amino)-N-(4-fluorophenyl)-N-methylpropanamide] has an IC50 of under 200 nM. `Cc1nc(NCC(=O)N(C)c2ccc(F)cc2F)c(C#N)c(C)c1Cl` [Example 26, 2-((5-chloro-3-cyano-4,6-dimethylpyridin-2-yl)-amino)-N-(2,4-difluorophenyl)-N-methylacetamide] showed an IC50 of under 200 nM. Work on `Cc1c(C#N)c(NCC(=O)N(C)c2ccc(F)cc2)nc2c1CCC2` [Example 27, 2-([3-cyano-4-methyl-5H,6H,7H-cyclopenta[b]-pyridin-2-yl]amino)-N-(4-fluorophenyl)-N-methylacetamide] yielded an IC50 of under 200 nM. `Cc1nc(NCC(=O)N(C)c2ccc(F)cc2)c(C#N)c2c1CCC2` [Example 28, 2-(4-cyano-1-methyl-6,7-dihydro-5H-cyclopenta[c]-pyridin-3-ylamino)-N-(4-fluorophenyl)-N-methylacetamide] showed an IC50 of under 200 nM. Work on `Cc1c(C#N)c(NCC(=O)N(C)c2ccc(F)cc2)nc2ccccc12` [Example 29, 2-[(3-cyano-4-methylquinolin-2-yl)amino]-N-(4-fluorophenyl)-N-methylacetamide] yielded an IC50 of 500 to 1000 nM. `Cc1nc(NCC(=O)N(c2ccc(Cl)cc2)C(C)C)c(C#N)c(C)c1Cl` [Example 30, 2-[(5-chloro-3-cyano-4,6-dimethylpyridin-2-yl)-amino]-N-(4-chlorophenyl)-N-(propan-2-yl)-acetamide] was tested, and the IC50 was 200 to 500 nM.
